Laboratory results published in patent US11304944B2, “MetAP2 inhibitors and methods of treating obesity” (SynDevRx, Inc., priority 2013, dated 2022).
Several values for one entry are separate records, joined by “and”; a condition that tells them apart may be missing. Equal entries are not always repeated. Where two headings read alike, the source gives them in different places.

System: DIO C57Bl6 mice
Settings: for Blood Glucose 120 / Blood Glucose 15 min / Blood Glucose 30 min / Blood Glucose 60 min / Blood Glucose 90 min / Blood Glucose Fasting: IP-GTT day 24, ± SEM; for CHOLESTEROL / HDL CHOLESTEROL / HDL/LDL ratio / LDL / TRIGLYCERIDE: blood day 32, ± SEM; for Epid. Fat / Fat % BW / Ing. Fat / Liver / RP Fat / Total Fat / avg B.W.: day 32; for Blood glucose: day 32, fasted three hours; for weekly food consumption, % of vehicle: day 9-29; for Weight Change from day 1: Day 32; for Average BW: IP-GTT day 24
Experimental: C57Bl6 male mice (N=6) fifteen weeks old with an average of weight of 42 g were ad libitum fed TD.06414 a high fat diet composed of 60% Kcal from fat (Harlan diet). […] Animals were weighed every other day. Food consumption was measured weekly. […] Each animal was weighed and a baseline fasted glucose measurement collected. Each animal was given a 1 gram per kilogram dose of dextrose as a 25% solution by intraperitoneal injection.

poly[HPMA-co-MA-GFLG-N-(trans-4-aminocyclohexyl)carbamoylfumagillol] [Compound 16]
Blood Glucose 120 (0.6 mg/kg q4d sc): 192 ± 12.9 mg/dL
Blood Glucose 15 min (0.6 mg/kg q4d sc): 442 ± 50.0 mg/dL
Blood Glucose 30 min (0.6 mg/kg q4d sc): 441 ± 35.54 mg/dL
Blood Glucose 60 min (0.6 mg/kg q4d sc): 388 ± 56.7 mg/dL
Blood Glucose 90 min (0.6 mg/kg q4d sc): 302 ± 43.3 mg/dL
Blood Glucose Fasting (0.6 mg/kg q4d sc): 206 ± 14.9 mg/dL
CHOLESTEROL (0.6 mg/kg q4d sc): 210 ± 3.7 mg/dL
HDL CHOLESTEROL (0.6 mg/kg q4d sc): 106 ± 1.2 mg/dL
HDL/LDL ratio (0.6 mg/kg q4d sc): 5.4 ± 0.1
LDL (0.6 mg/kg q4d sc): 20 ± 0.3 mg/dL
TRIGLYCERIDE (0.6 mg/kg q4d sc): 116 ± 3.1 mg/dL
Epid. Fat (0.6 mg/kg q4d sc): 2.24 g
Fat % BW (0.6 mg/kg q4d sc): 13.9%
Ing. Fat (0.6 mg/kg q4d sc): 2.51 g
Liver (0.6 mg/kg q4d sc): 1.75 g
RP Fat (0.6 mg/kg q4d sc): 1.26 g
Total Fat (0.6 mg/kg q4d sc): 6.01 g
avg B.W. (0.6 mg/kg q4d sc): 43.32 g
Blood glucose (0.6 mg/kg q4d sc): 265 mg/dL
weekly food consumption, % of vehicle (2 mg/kg q4d): 90%
Weekly food consumption Day 1-8 (2 mg/kg q4d sc): 14.3 g
Weekly food consumption Day 9-15 (2 mg/kg q4d sc): 22.2 g
Weekly food consumption Day 15-22 (2 mg/kg q4d sc): 19.9 g
Weekly food consumption Day 22-29 (2 mg/kg q4d sc): 18.5 g
Group BW ± SEM, Day 32 (2.0 mg/kg q4d sc): 38.8 ± 0.70 g
Weight Change from day 1 (2.0 mg/kg q4d sc): −7.4%
Average BW (2.0 mg/kg q4d sc): 36.8 g
Blood Glucose 120 (2.0 mg/kg q4d sc): 166 ± 6.4 mg/dL
Blood Glucose 15 min (2.0 mg/kg q4d sc): 388 ± 20.7 mg/dL
Blood Glucose 30 min (2.0 mg/kg q4d sc): 361 ± 24.3 mg/dL
Blood Glucose 60 min (2.0 mg/kg q4d sc): 327 ± 26.7 mg/dL
Blood Glucose 90 min (2.0 mg/kg q4d sc): 244 ± 24.0 mg/dL
Blood Glucose Fasting (2.0 mg/kg q4d sc): 198 ± 11.6 mg/dL
CHOLESTEROL (2 mg/kg q4d sc): 149 ± 4.7 mg/dL
HDL CHOLESTEROL (2 mg/kg q4d sc): 92 ± 2.6 mg/dL
HDL/LDL ratio (2 mg/kg q4d sc): 9.0 ± 0.4
LDL (2 mg/kg q4d sc): 10 ± 0.5 mg/dL
TRIGLYCERIDE (2 mg/kg q4d sc): 95 ± 8.7 mg/dL
Epid. Fat (2.0 mg/kg q4d sc): 1.72 g
Fat % BW (2.0 mg/kg q4d sc): 11% and 11.4%
Ing. Fat (2.0 mg/kg q4d sc): 1.81 g
Liver (2.0 mg/kg q4d sc): 1.44 g
RP Fat (2.0 mg/kg q4d sc): 0.89 g
Total Fat (2.0 mg/kg q4d sc): 4.42 g
avg B.W. (2.0 mg/kg q4d sc): 38.82 g
Blood glucose (2.0 mg/kg q4d sc): 259 mg/dL
weekly food consumption, % of vehicle (6 mg/kg q4d): 75%
Weekly food consumption Day 1-8 (6 mg/kg q4d sc): 9.0 g
Weekly food consumption Day 9-15 (6 mg/kg q4d sc): 17.5 g
Weekly food consumption Day 15-22 (6 mg/kg q4d sc): 17.8 g
Weekly food consumption Day 22-29 (6 mg/kg q4d sc): 16.1 g
Group BW ± SEM, Day 32 (6.0 mg/kg q4d sc): 33.6 ± 0.72 g
Weight Change from day 1 (6.0 mg/kg q4d sc): −20.0%
Average BW (6.0 mg/kg q4d sc): 33.0 g
Blood Glucose 120 (6.0 mg/kg q4d sc): 177 ± 9.3 mg/dL
Blood Glucose 15 min (6.0 mg/kg q4d sc): 473 ± 39.1 mg/dL
Blood Glucose 30 min (6.0 mg/kg q4d sc): 355 ± 23.8 mg/dL
Blood Glucose 60 min (6.0 mg/kg q4d sc): 324 ± 19.1 mg/dL
Blood Glucose 90 min (6.0 mg/kg q4d sc): 240 ± 6.7 mg/dL
Blood Glucose Fasting (6.0 mg/kg q4d sc): 185 ± 6.5 mg/dL
CHOLESTEROL (6 mg/kg q4d sc): 109 ± 2.6 mg/dL
HDL CHOLESTEROL (6 mg/kg q4d sc): 72 ± 1.3 mg/dL
HDL/LDL ratio (6 mg/kg q4d sc): 9.0 ± 0.5
LDL (6 mg/kg q4d sc): 8 ± 0.5 mg/dL
TRIGLYCERIDE (6 mg/kg q4d sc): 81 ± 13.6 mg/dL
Epid. Fat (6.0 mg/kg q4d sc): 1.11 g
Fat % BW (6.0 mg/kg q4d sc): 10% and 9.7%
Ing. Fat (6.0 mg/kg q4d sc): 1.54 g
Liver (6.0 mg/kg q4d sc): 1.30 g
RP Fat (6.0 mg/kg q4d sc): 0.60 g
Total Fat (6.0 mg/kg q4d sc): 3.25 g
avg B.W. (6.0 mg/kg q4d sc): 33.60 g
Blood glucose (6.0 mg/kg q4d sc): 227 mg/dL
